Source: patent US8030315B2, “DPP-IV inhibitor including beta-amino group, preparation method thereof and pharmaceutical composition containing the same for preventing and treating diabetes or obesity” (Dong-A Pharm. Co., Ltd., priority 2007, dated 2011)

Assays:
C57BL/6 mice = assay: Oral glucose tolerance test (OGTT); type: in vivo; details: dose of 1 mg/kg, compared to the control group
Protocol: Blood was collected from caudal veins of animals in the morning on the day of the experiment and a blood glucose level was measured with an Accu-Chek Active Blood Glucose Meter (Roche Diagnostics). […] Blood collection was made at designated time points—just prior to drug administration, just prior to glucose administration, and 5, 15, 30, 60 and 90 min after glucose administration.

[1] = In vivo kinetic experiments (half-life); details: SD, rat, blood, po, 10 mg/kg

| SMILES | blood glucose-lowering effects (C57BL/6 mice) [%] | half-life [1] [h] |
| --- | --- | --- |
| CC(C)(C)OC[C@@H]1C(=O)NCCN1C(=O)C[C@H](N)Cc1cc(F)c(F)cc1F.Cl [Example 1, (R)-4-[(R)-3-amino-4-(2,4,5-trifluorophenyl)butanoyl]-3-(t-butoxymethyl)piperazin-2-one hydrochloride] | 54 | 7.9 |
| CCOC[C@@H]1C(=O)NCCN1C(=O)C[C@H](N)Cc1cc(F)c(F)cc1F.Cl [Example 3, (R)-4-[(R)-3-amino-4-(2,4,5-trifluorophenyl)butanoyl]-3-(ethoxymethyl)piperazin-2-one hydrochloride] | 52 | 7.6 |
| N[C@@H](CC(=O)N1CCn2c(nnc2C(F)(F)F)C1)Cc1cc(F)c(F)cc1F [MK-0431, reference compound] |  | 4.8 |
| CC(C)(C)OC[C@@H]1C(=O)NCCN1C(=O)C[C@H](N)Cc1cc(F)c(F)cc1F.O=C(O)C(O)C(O)C(=O)O [Example 12, (R)-4-[(R)-3-amino-4-(2,4,5-trifluorophenyl)butanoyl]-3-(t-butoxymethyl)piperazin-2-one tartrate] | 62 | 5.5 |
